# In article PMC5453931, “Cathelicidin-trypsin inhibitor loop conjugate represents a promising antibiotic candidate with protease stability” (Scientific Reports, 2017):
# Where a SMILES comes first, the peptide text is derived from it.
# Key:
# Type in all cases: cell-based
# P. aeruginosa = conditions: 18 h
# Description: (§1) A two-fold broth microdilution method described in our previous paper was used to determine the antimicrobial activities of parental and hybrid peptides. More than 30 strains including Gram-negative bacteria, Gram-positive bacteria and fungi were used in the current assay, in which the standard strains were stored in our lab and the clinical strains were collected from local hospitals. Briefly, bacteria were incubated in Mueller-Hinton broth (MH broth) at 37 °C to exponential phase and diluted to 10^6 CFU/mL. A serial dilution of peptide sample were prepared in 96-well microtiter plates (50 μL) and mixed with equal volume of microbial inoculums (50 μL). The plate was slowly shaken in the microbial incubator, and measured at A595 after incubation at 37 °C for 18 h. The minimal concentrations at which no microbial growth occurred were recorded as MIC (minimal inhibitory concentration) values. The traditional antibiotic ampicillin was used as positive control. The results are shown in an average of the MICs obtained from three independent experiments.
# C. albican = conditions: 18 h
# Description: as §1
# B. subtilis = conditions: 18 h
# Description: as §1
# S. aureus = conditions: 18 h
# Description: as §1
# S. dysenteria = conditions: two-fold broth microdilution, MH broth, 37 °C, 18 h, A595; mean of three independent experiments in duplicate
# Description: as §1
# P. mirabilis = conditions: 18 h
# Description: as §1
# E. coli = conditions: 18 h
# Description: as §1
Structure (SMILES),MIC P. aeruginosa (P. aeruginosa) [µg/mL],MIC C. albican (C. albican) [µg/mL],MIC B. subtilis (B. subtilis) [µg/mL],MIC S. aureus (S. aureus) [µg/mL],MIC S. dysenteria (S. dysenteria) [µg/mL],MIC P. mirabilis (P. mirabilis) [µg/mL],MIC E. coli (E. coli) [µg/mL]
CC(C)C[C@H](NC(=O)[C@H](CCCNC(=N)N)NC(=O)[C@H](CCCCN)NC(=O)[C@H](Cc1ccccc1)NC(=O)[C@H](Cc1ccccc1)NC(=O)[C@@H](N)CCCCN)C(=O)N[C@@H](CC(C)C)C(=O)N[C@@H](CCCCN)C(=O)N[C@@H](CO)C(=O)N[C@H](C(=O)N[C@@H](CCCNC(=N)N)C(=O)N[C@@H](CCCNC(=N)N)C(=O)N[C@@H](C)C(=O)N[C@H](C(=O)N[C@@H](CCCCN)C(N)=O)C(C)C)C(C)C [Hc5] (H-KFFKRLLKSVRRAVK-NH2),75,37.5,150,37.5,4.69,18.75,37.5
CC(C)C[C@H](NC(=O)[C@H](CCCNC(=N)N)NC(=O)[C@H](CCCCN)NC(=O)[C@H](Cc1ccccc1)NC(=O)[C@H](Cc1ccccc1)NC(=O)[C@@H](N)CCCCN)C(=O)N[C@@H](CC(C)C)C(=O)N[C@@H](CCCCN)C(=O)N[C@@H](CO)C(=O)N[C@H](C(=O)N[C@@H](CCCNC(=N)N)C(=O)N[C@@H](CCCNC(=N)N)C(=O)N[C@@H](C)C(=O)N[C@H](C(=O)N[C@@H](CCCCN)C(=O)N[C@@H](CCCCN)C(=O)N[C@@H](Cc1ccccc1)C(=O)N[C@@H](CCCNC(=N)N)C(N)=O)C(C)C)C(C)C [Hc2] (H-KFFKRLLKSVRRAVKKFR-NH2),9.38,9.38,18.75,9.38,2.34,9.38,9.38
